Structures can show the parent of a compound that is named as a salt.

For series [1], the target named is T1, rCB-1 (Rattus norvegicus, UniProt P20272).
T1 construct: purchased Applied Cell Sciences, Rockville, Md; host or cells: CHO cell membranes
Nature of the series: rCB1-CHO antagonist mode SPA GTP-γ-35S binding assay. Particulars: antagonist mode vs methanandamide; read-out: rCB-1 SPA GTPγS CHO Membrane Antagonist Kb. Format: biochemical. As to the method: (§1) Compounds of the present invention may be tested for functional activity at the CB-1 and CB-2 receptors in both agonist and antagonist modes using SPA (Scintillation Proximity Assay) based GTP-γ-^35S binding assays. All assay components are prepared in assay buffer (20 mM HEPES, 100 mM NaCl, 5 mM MgCl2, pH 7.4) at room temperature. Semi-log dilutions of test compound are prepared in assay buffer containing BSA (0.125% final conc.) for the agonist mode assays. For the antagonist mode assays, test compounds are prepared in the same manner but also include an 80% efficacious dose of a full agonist (methanandamide). GTP-γ^35S binding for the antagonist assay may be measured in a 96 well format using a modification of an antibody capture technique previously described. (DeLapp, N W, et al. (1999) J Pharmacol Exp Ther 289:946-955.) The CB-2 receptor agonist activity may be measured using a similar method using hCB2-Sf9 membranes. The CB-1 receptor agonist activity may be measured using a whole membrane capture technique using hCB1-CHO membranes. All incubations are done at room temperature.
(§2) hCB1-CHO or rCB1-CHO membranes (Applied Cell Sciences, Rockville, Md.) and GDP (1 μM final) are added to ice cold assay buffer and homogenized. […] Plates are then centrifuged at 700×g for 10 min. and the radioactivity counted.
(§3) Data are analyzed as follows: Background is subtracted from all wells. […] Percent antagonist inhibition is calculated by first normalizing the data to the signal generated by a saturating concentration of the full agonist (methanandamide). Then the data are analyzed using a 4-parameter logistic reduced fit (Activity Base™ and XLFit3™ from IDBS, Emeryville, Calif.). Kb values are determined using a modification of the Cheng-Prusoff relationship: Kb=IC50/(1+[agonist]/EC50), where “IC50” is determined from a four parameter fit of displacement curves, “[agonist]” is the agonist challenge concentration (nM), and “EC50” is determined from a four parameter fit of a full agonist concentration response curve (Cheng and Prusoff 1973). […]
Background: Binding of GTPγS marks nucleotide exchange on a G protein.

Series [2] addresses T2, hCB-2 (Homo sapiens, UniProt P34972).
T2 construct: purchased Perkin Elmer, Boston, Mass; host or cells: Sf9 cell membranes
Nature of the series: hCB2-Sf9 antagonist mode SPA GTP-γ-35S binding assay. The class given is biochemical. Particulars: antagonist mode vs methanandamide; read-out: hCB-2 SPA GTPγS Sf9 Membrane Antagonist Kb. As to the method:
(§4) Compounds of the present invention may be tested for functional activity at the CB-1 and CB-2 receptors in both agonist and antagonist modes using SPA (Scintillation Proximity Assay) based GTP-γ-^35S binding assays. All assay components are prepared in assay buffer (20 mM HEPES, 100 mM NaCl, 5 mM MgCl2, pH 7.4) at room temperature. Semi-log dilutions of test compound are prepared in assay buffer containing BSA (0.125% final conc.) for the agonist mode assays. For the antagonist mode assays, test compounds are prepared in the same manner but also include an 80% efficacious dose of a full agonist (methanandamide). GTP-γ^35S binding for the antagonist assay may be measured in a 96 well format using a modification of an antibody capture technique previously described. (DeLapp, N W, et al. (1999) J Pharmacol Exp Ther 289:946-955.) The CB-2 receptor agonist activity may be measured using a similar method using hCB2-Sf9 membranes. The CB-1 receptor agonist activity may be measured using a whole membrane capture technique using hCB1-CHO membranes. All incubations are done at room temperature. […]
(§5) Data are analyzed as follows: Background is subtracted from all wells. […] Percent antagonist inhibition is calculated by first normalizing the data to the signal generated by a saturating concentration of the full agonist (methanandamide). Then the data are analyzed using a 4-parameter logistic reduced fit (Activity Base™ and XLFit3™ from IDBS, Emeryville, Calif.). Kb values are determined using a modification of the Cheng-Prusoff relationship: Kb=IC50/(1+[agonist]/EC50), where “IC50” is determined from a four parameter fit of displacement curves, “[agonist]” is the agonist challenge concentration (nM), and “EC50” is determined from a four parameter fit of a full agonist concentration response curve (Cheng and Prusoff 1973). Mean Kb values are calculated as a mean of at least three independent determinations±standard error of the mean (SEM). […]

For series [3], the target named is T2, hCB-2. As to the kind of experiment: hCB2-Sf9 agonist mode SPA GTP-γ-35S binding assay. The class given is biochemical. The settings on record: read-out: hCB-2 SPA GTPγS Sf9 Membrane Agonist Relative EC50. The method, then:
as §4
Data are analyzed as follows: Background is subtracted from all wells. […] Percent antagonist inhibition is calculated by first normalizing the data to the signal generated by a saturating concentration of the full agonist (methanandamide). […]

The subject of series [4] is CYP3A. As to the kind of experiment: Human CYP fingerprinting, ketoconazole inhibition. The class given is in vitro ADME. The settings on record: 4 μM, human liver microsomes, 30 min, 10 μM ketoconazole. As to the method: (§6) CYP fingerprinting is well established technique and is used as an indication of potential risk of drug-drug interactions in the pharmaceutical sciences. Compounds of the present invention may be assayed by well known methods, essentially as follows: Compounds are incubated at 37° C. at a final concentration of 4 μM with pooled, mixed gender, human liver microsomes and 1 mM NADPH (Nicotine Adenine Dinucleotide Phosphate) (final conc.) for 0 and 30 min. without any CYP inhibitor and with each CYP inhibitor in separate incubations for 30 min. Each inhibitor is specific for an individual cytochrome P450. The specific inhibitors used for CYPs 2C9, 2D6 and 3A were sulfaphenazole, quinidine and ketoconazole, respectively. Ketoconazole (CYP3A) is made up at 25 mM in DMSO and then diluted in buffer to a final concentration of 10 μM. Quinidine (CYP2D6) is made up at 5 mM in 50/50 acetonitrile/water and then diluted in buffer to a final concentration of 10 μM. Sulfaphenazole (CYP2C9) is made up at 100 mM in DMSO and then diluted in buffer to a final concentration of 5 μM. Samples are analyzed by LC-MS in positive or negative electrospray mode using a Waters Acquity Ultra Performance LC coupled to a MicroMass Q-T of-2 mass spectrometer.
(§7) Data are analyzed using MetaboLynx™ version 4.1. […]
(Microsomes from liver hold many membrane-bound enzymes, among them those of drug oxidation.)

The target in series [5] is T3, CYP2D6 (Homo sapiens, UniProt P10635).
T3 construct: pooled, mixed gender, human liver microsomes; from tissue; host or cells: pooled, mixed gender human liver microsomes
Nature of the series: Human CYP fingerprinting, quinidine inhibition. Format: in vitro ADME. Particulars: 4 μM, human liver microsomes, 30 min, 10 μM quinidine. The method, then: as §6, §7

Series [6] addresses T4, CYP2C9 (Homo sapiens, UniProt P11712).
T4 construct: pooled, mixed gender, human liver microsomes; from tissue; host or cells: pooled, mixed gender human liver microsomes
As to the kind of experiment: Human CYP fingerprinting, sulfaphenazole inhibition. Format: in vitro ADME. The settings on record: 4 μM, human liver microsomes, 30 min, 5 μM sulfaphenazole. As to the method:
as §6, §7

Series [7] concerns the target T5, hCB-1 (Homo sapiens, UniProt P21554). Nature of the series: hCB1-Sf9 antagonist mode SPA GTP-γ-35S binding assay. The class given is biochemical. Set-up: purchased Applied Cell Sciences, Rockville, Md. The settings on record: Sf9 membrane 22.7 μg; antagonist mode vs methanandamide; read-out: hCB-1 SPA GTPγS Sf9 Membrane 22.7 μg Antagonist Kb. As to the method:
as §4, §5

Series [8] addresses T5, hCB-1. As to the kind of experiment: hCB1-CHO antagonist mode SPA GTP-γ-35S binding assay. Set-up: purchased Applied Cell Sciences, Rockville, Md; host or cells: CHO cell membranes. Format: biochemical. The settings on record: antagonist mode vs methanandamide; read-out: hCB-1 SPA GTPγS CHO Membrane Antagonist Kb. As to the method:
as §1, §2, §3

For series [9], the target named is T5, hCB-1. As to the kind of experiment: hCB1-CHO agonist mode SPA GTP-γ-35S binding assay. Set-up: purchased Applied Cell Sciences, Rockville, Md; host or cells: CHO cell membranes. Format: biochemical. The method, then:
as §1
hCB1-CHO membrane, GDP (1 μM final conc.), and saponin (10 μg/mL final conc., Sigma, St Louis, Mo.) are combined and prepared on ice as for the antagonist assays, above. Diluted test compounds, GTP-γ-^35S ([…] final conc.) and membranes are combined in the assay plate and incubated for 30 min. Then 1 mg/well Wheatgerm Agglutinin SPA beads (GE Healthcare, Piscataway, N.J.) are added, plates are sealed and vortexed and incubate for 1 hr. before spinning and counting in the same fashion as for the antagonist assays, above.
Data are analyzed as follows: Background is subtracted from all wells. Percent agonist efficacy is determine by normalizing agonist/inverse agonist dose response data to the response obtained for a full agonist (methanandamide). Percent antagonist inhibition is calculated by first normalizing the data to the signal generated by a saturating concentration of the full agonist (methanandamide). Then the data are analyzed using a 4-parameter logistic reduced fit (Activity Base™ and XLFit3™ from IDBS, Emeryville, Calif.). Kb values are determined using a modification of the Cheng-Prusoff relationship: Kb=IC50/(1+[agonist]/EC50), where “IC50” is determined from a four parameter fit of displacement curves, “[agonist]” is the agonist challenge concentration (nM), and “EC50” is determined from a four parameter fit of a full agonist concentration response curve (Cheng and Prusoff 1973). Mean Kb values are calculated as a mean of at least three independent determinations±standard error of the mean (SEM). […]

T5 sequence (P21554 whole entry): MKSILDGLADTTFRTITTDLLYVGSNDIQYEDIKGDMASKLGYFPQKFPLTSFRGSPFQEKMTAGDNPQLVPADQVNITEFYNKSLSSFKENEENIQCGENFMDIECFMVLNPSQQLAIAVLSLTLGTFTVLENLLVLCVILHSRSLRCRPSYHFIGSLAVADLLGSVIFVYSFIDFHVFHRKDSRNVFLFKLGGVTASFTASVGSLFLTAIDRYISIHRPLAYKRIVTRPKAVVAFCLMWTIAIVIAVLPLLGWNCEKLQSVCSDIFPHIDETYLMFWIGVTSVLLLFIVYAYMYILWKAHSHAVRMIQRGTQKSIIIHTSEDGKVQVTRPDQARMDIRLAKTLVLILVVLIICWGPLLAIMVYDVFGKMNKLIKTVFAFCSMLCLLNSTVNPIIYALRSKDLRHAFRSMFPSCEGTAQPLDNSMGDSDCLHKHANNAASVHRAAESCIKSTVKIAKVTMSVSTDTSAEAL
T2 sequence (P34972 whole entry): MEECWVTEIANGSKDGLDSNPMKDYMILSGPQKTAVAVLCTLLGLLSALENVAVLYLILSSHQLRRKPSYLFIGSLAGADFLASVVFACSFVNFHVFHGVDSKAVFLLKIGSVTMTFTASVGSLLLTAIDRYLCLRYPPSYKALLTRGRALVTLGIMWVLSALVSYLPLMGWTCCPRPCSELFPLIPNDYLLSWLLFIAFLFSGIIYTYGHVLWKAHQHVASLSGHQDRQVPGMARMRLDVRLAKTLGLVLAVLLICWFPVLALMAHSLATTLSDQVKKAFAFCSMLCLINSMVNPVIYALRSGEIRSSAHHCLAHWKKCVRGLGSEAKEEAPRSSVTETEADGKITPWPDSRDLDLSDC
T4 sequence (P11712 whole entry): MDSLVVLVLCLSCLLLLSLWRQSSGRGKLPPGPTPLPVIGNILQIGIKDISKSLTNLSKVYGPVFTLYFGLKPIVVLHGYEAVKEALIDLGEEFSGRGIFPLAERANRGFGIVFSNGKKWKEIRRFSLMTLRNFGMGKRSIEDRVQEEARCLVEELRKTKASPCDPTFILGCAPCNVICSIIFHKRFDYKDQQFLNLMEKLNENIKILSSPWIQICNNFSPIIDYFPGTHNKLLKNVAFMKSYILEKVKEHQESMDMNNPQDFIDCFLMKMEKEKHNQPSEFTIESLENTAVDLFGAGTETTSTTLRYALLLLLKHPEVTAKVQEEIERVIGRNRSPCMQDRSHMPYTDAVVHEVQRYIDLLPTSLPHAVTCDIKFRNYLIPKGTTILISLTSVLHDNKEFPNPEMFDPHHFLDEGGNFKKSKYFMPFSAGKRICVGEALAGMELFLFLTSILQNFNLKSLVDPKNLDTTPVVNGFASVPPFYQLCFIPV
T3 sequence (P10635 whole entry): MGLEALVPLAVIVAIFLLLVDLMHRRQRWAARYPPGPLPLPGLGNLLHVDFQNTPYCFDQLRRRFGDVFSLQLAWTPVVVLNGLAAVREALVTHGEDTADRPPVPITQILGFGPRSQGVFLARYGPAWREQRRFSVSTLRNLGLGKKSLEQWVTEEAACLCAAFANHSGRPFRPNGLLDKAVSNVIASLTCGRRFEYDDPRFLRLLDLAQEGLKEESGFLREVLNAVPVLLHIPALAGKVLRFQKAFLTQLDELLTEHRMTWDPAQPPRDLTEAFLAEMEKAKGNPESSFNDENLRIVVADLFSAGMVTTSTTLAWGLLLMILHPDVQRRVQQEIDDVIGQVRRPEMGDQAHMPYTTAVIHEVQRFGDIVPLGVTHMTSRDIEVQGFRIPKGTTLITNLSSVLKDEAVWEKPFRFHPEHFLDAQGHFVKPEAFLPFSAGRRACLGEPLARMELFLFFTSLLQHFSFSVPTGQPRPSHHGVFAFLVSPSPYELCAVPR
T1 sequence (P20272 whole entry): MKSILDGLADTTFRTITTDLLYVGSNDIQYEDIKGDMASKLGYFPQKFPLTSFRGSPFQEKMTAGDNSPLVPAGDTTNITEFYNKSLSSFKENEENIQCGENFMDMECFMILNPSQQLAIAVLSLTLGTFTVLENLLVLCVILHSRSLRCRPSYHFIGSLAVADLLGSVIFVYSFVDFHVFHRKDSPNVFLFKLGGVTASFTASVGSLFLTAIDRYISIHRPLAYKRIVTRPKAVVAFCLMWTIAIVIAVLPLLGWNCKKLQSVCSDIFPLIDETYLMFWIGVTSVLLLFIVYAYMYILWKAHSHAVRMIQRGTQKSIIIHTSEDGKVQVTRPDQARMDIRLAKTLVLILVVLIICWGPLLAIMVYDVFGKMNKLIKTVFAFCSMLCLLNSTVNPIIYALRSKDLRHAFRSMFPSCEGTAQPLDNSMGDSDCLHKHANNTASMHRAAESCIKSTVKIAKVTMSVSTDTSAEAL

The Kb is the affinity of an antagonist, worked out from how it opposes an agonist. In general, EC50 refers to the concentration at which the effect is half-maximal. Take `CC(C)(N[C@@H]1C[C@H](c2cccc(OC(F)(F)F)c2)N(c2ccc(C#N)cc2)C1=O)c1cccc(C(F)(F)F)n1` [27 Tosylate salt, 4-[(3R,5R)-3-[1-methyl-1-(6-trifluoromethyl-pyridin-2-yl)-ethylamino]-2-oxo-5-(3-trifluoromethoxy-phenyl)-pyrrolidin-1-yl]-benzonitrile tosylate]: the Kb was 0.238 nM in [1], greater than 18400 nM in series [2], 1.77 nM in [7] and 0.179 nM in series [8]. In addition, the EC50 was greater than 100000 nM in series [3] and 0.943 nM in [9] (inverse agonism, read-out: hCB-1 SPA GTPγS CHO Membrane Agonist Relative EC50 inverse). Further, in series [4], the “Risk of Drug Drug Interaction (DDI) CYP3A” value is on record as “Low”. Also, in [5], the “Risk of Drug Drug Interaction (DDI) CYP2D6” value is “Low”. Further, the “Risk of Drug Drug Interaction (DDI) CYP2C9” value in series [6] was “low (a reduction in metabolite peak area of less than 30% (relative to the uninhibited control incubation) receives a designation of low risk of Drug Drug Interaction (DDI))”. In addition, the “hCB-1 SPA GTPγS CHO Membrane Agonist % Relative Efficacy” value in [9] (normalized to full agonist methanandamide) was −97.3%.
